Test results: EPA's ToxRefDB 2

Experiments:
[1] = system: mouse; settings: Carcinogenicity; other; Oral; Feed; dose end: 21 month; group: systemic; systemic / pathology microscopic / liver / hypertrophy
[2] = system: rat; settings: Combined chronic toxicity/carcinogenicity, wistar, Oral, Feed, dose end: 2 year, group: systemic
[3] = system: rabbit; settings: Prenatal developmental toxicity study, other, Oral, Gavage/Intubation, dose end: 18 GD
[4] = system: rat; settings: Prenatal developmental toxicity study, sprague dawley, Oral, Gavage/Intubation, dose end: 15 GD
[5] = system: rat; settings: Multigenerational reproductive toxicity study, other, Oral, Feed, dose end: 2 generation
[6] = system: dog; settings: Chronic toxicity, beagle, Oral, Feed, dose end: 24 month, group: systemic
[7] = system: rat; settings: Prenatal developmental toxicity study; sprague dawley; Oral; Gavage/Intubation; dose end: 15 GD; group: developmental; developmental / developmental malformation / bone / absent
[8] = system: mouse; settings: Combined chronic toxicity/carcinogenicity, Oral, Feed, dose end: 2 year, group: systemic
[9] = system: rat; settings: Prenatal developmental toxicity study, sprague dawley, Oral, Gavage/Intubation, dose end: 15 GD; remark: listed apart in the source
[10] = system: rat; settings: Multigenerational reproductive toxicity study, sprague dawley, Inhalation, Whole-Body, dose end: 2 generation
[11] = system: rat; settings: Prenatal developmental toxicity study, sprague dawley, Inhalation, Whole-Body, dose end: 15 GD, group: maternal
[12] = system: rat; settings: Combined chronic toxicity/carcinogenicity; fischer; Oral; Feed; dose end: 104 week; group: systemic; systemic / pathology microscopic / stomach / adenocarcinoma + systemic / pathology microscopic / stomach / adenoma + systemic / in life …
[13] = system: mouse; settings: Carcinogenicity; b6c3f1; Oral; Feed; dose end: 96 week; group: systemic; systemic / pathology microscopic / stomach / adenoma + systemic / in life observation / body weight / body weight + systemic / in life …
[14] = system: rabbit; settings: Prenatal developmental toxicity study, new zealand white, Oral, Gavage/Intubation, dose end: 19 GD
[15] = system: rat; settings: Prenatal developmental toxicity study; sprague dawley; Oral; Gavage/Intubation; dose end: 17 GD; group: maternal; systemic / in life observation / clinical signs / [other] + systemic / in life observation / clinical signs / ataxia + systemic / in life …
[16] = system: rat; settings: Peri- and post-natal toxicity study (Segment III), sprague dawley, Oral, Gavage/Intubation, dose end: 25 PND
[17] = system: rat; settings: Multigenerational reproductive toxicity study; sprague dawley; Oral; Gavage/Intubation; dose end: 1 generation; group: parental; systemic / in life observation / body weight / body weight gain + systemic / in life observation / clinical signs / skin discoloration + …
[18] = systemic / pathology microscopic / thyroid gland / adenoma + systemic / in life observation / body weight / body weight + systemic / organ …
[19] = group: developmental, developmental / developmental malformation / bone / incomplete ossification + developmental / developmental malformation / bone / misshapen
[20] = group: developmental, developmental / developmental malformation / bone / incomplete ossification + developmental / developmental malformation / bone / misshapen…
[21] = group: maternal, systemic / in life observation / body weight / body weight gain
[22] = group: developmental, developmental / developmental malformation / bone / [other] + developmental / developmental malformation / bone / full supernumerary + …
[23] = group: maternal, systemic / in life observation / clinical signs / motor activity
[24] = group: maternal, systemic / in life observation / clinical signs / motor activity + systemic / in life observation / body weight / body weight gain
[25] = group: offspring, developmental / offspring survival late / lactation index / lactation index + developmental / offspring survival late / viability index / …
[26] = group: parental, systemic / organ weight / ovary / relative to body weight + systemic / organ weight / ovary / absolute
[27] = group: reproductive, reproductive / reproductive performance / fertility / fertility
[28] = systemic / clinical chemistry / alanine aminotransferase (alt/sgpt) / alanine aminotransferase (alt/sgpt) + systemic / clinical chemistry / …
[29] = systemic / clinical chemistry / urea nitrogen / urea + systemic / clinical chemistry / creatinine / creatinine + systemic / organ weight / …
[30] = group: developmental, developmental / developmental malformation / bladder / distended + developmental / developmental malformation / bone / supernumerary
[31] = group: maternal, reproductive / reproductive performance / resorptions / resorptions + systemic / in life observation / body weight / body weight gain
[32] = group: offspring, systemic / in life observation / body weight / offspring (pup) weight
[33] = group: parental, systemic / organ weight / epididymis / absolute + systemic / organ weight / epididymis / relative to body weight + systemic / organ weight…
[34] = group: reproductive, reproductive / reproductive performance / fertility / fertility + reproductive / reproductive performance / pregnancy / pregnancy + …
[35] = systemic / in life observation / body weight / body weight gain + systemic / organ weight / spleen / absolute + systemic / organ weight / …
[36] = group: developmental, developmental / developmental landmark / incisor eruption / incisor eruption + developmental / developmental malformation / bone / delayed …
[37] = group: maternal, systemic / in life observation / body weight / body weight + systemic / in life observation / clinical signs / [other] + systemic / in life …
[38] = group: maternal, reproductive / offspring survival early / dead fetuses / dead fetuses
[39] = group: parental, systemic / in life observation / clinical signs / skin discoloration + systemic / in life observation / clinical signs / urine, …

CC(C)(C)C(=O)C(Oc1ccc(Cl)cc1)n1cncn1 (centres undefined) [Triadimefon]
LEL [1]: 19.6 mg/kg/day
LOAEL [1]: 19.6 mg/kg/day
NEL [1]: < 19.6 mg/kg/day
NOAEL [1]: < 19.6 mg/kg/day
LEL ([2]; systemic / hematology / leukocyte (wbc) count differential / leukocyte (wbc) + systemic / organ weight / liver / nos): 22.5 mg/kg/day
NEL ([2]; systemic / hematology / leukocyte (wbc) count differential / leukocyte (wbc) + systemic / organ weight / liver / nos + systemic / clinical …): 3.6 mg/kg/day
LOAEL [2, 18]: 114 mg/kg/day
NOAEL [2, 18]: 16.4 mg/kg/day
LEL [3, 19]: 50 mg/kg/day
LOAEL [3, 19]: 50 mg/kg/day
NEL [3, 20]: 20 mg/kg/day
NOAEL [3, 20]: 20 mg/kg/day
LEL [3, 21]: 120 mg/kg/day
LOAEL [3, 21]: 120 mg/kg/day
NEL [3, 21]: 50 mg/kg/day
NOAEL [3, 21]: 50 mg/kg/day
LOAEL ([4]; group: developmental, developmental / developmental malformation / bone / [other]): 100 mg/kg/day
NEL [4, 22]: 25 mg/kg/day
NOAEL [4, 22]: 50 mg/kg/day
LEL ([4]; group: developmental, developmental / developmental malformation / bone / full supernumerary): 50 mg/kg/day
LEL [4, 23]: 25 mg/kg/day
LOAEL [4, 23]: 25 mg/kg/day
NEL [4, 24]: 10 mg/kg/day
NOAEL [4, 24]: 10 mg/kg/day
LEL [5, 25]: 90 mg/kg/day
LOAEL [5, 25]: 90 mg/kg/day
NEL [5, 25]: 2.5 mg/kg/day
NOAEL [5, 25]: 2.5 mg/kg/day
NOAEL ([5]; group: parental, systemic / organ weight / ovary / relative to body weight + systemic / in life observation / body weight / body weight + systemic / organ …): 2.5 mg/kg/day
LOAEL ([5]; group: parental, systemic / organ weight / ovary / relative to body weight + systemic / organ weight / epididymis / relative to body weight): 90 mg/kg/day
LEL [5, 26]: 2.5 mg/kg/day
NEL [5, 26]: < 2.5 mg/kg/day
LEL [5, 27]: 90 mg/kg/day
LOAEL [5, 27]: 90 mg/kg/day
NEL [5, 27]: 2.5 mg/kg/day
NOAEL [5, 27]: 2.5 mg/kg/day
LOAEL [6, 28]: 47 mg/kg/day
NOAEL [6, 28]: 11.4 mg/kg/day
NEL ([6]; systemic / clinical chemistry / alkaline phosphatase (alp/alk) / alkaline phosphatase (alp/alk) + systemic / clinical chemistry / …): 3.03 mg/kg/day
LEL ([6]; systemic / pathology microscopic / testes / infiltration cellular / epididymides): 11.4 mg/kg/day
LEL [7]: 10 mg/kg/day
LOAEL [7]: 10 mg/kg/day
NEL [7]: 5 mg/kg/day
NOAEL [7]: 5 mg/kg/day
NOAEL [8, 28]: 40 mg/kg/day
LOAEL ([8]; systemic / clinical chemistry / alanine aminotransferase (alt/sgpt) / alanine aminotransferase (alt/sgpt) + systemic / in life observation…): 240 mg/kg/day
LEL [8, 29]: 6.67 mg/kg/day
NEL [8, 29]: < 6.67 mg/kg/day
LEL [9, 30]: 90 mg/kg/day
LOAEL [9, 30]: 90 mg/kg/day
NEL [9, 30]: 30 mg/kg/day
NOAEL [9, 30]: 30 mg/kg/day
LEL [9, 31]: 90 mg/kg/day
LOAEL [9, 31]: 90 mg/kg/day
NEL [9, 31]: 30 mg/kg/day
NOAEL [9, 31]: 30 mg/kg/day

O=[N+]([O-])c1ccccc1 [Nitrobenzene]
LEL [10, 32]: 40 ppm
LOAEL [10, 32]: > 40 ppm
NEL [10, 32]: 10 ppm
NOAEL [10, 32]: ≥ 40 ppm
LEL [10, 33]: 40 ppm
LOAEL [10, 33]: > 40 ppm
NEL [10, 33]: 10 ppm
NOAEL [10, 33]: ≥ 40 ppm
NEL ([10]; group: reproductive, reproductive / reproductive performance / fertility / fertility + reproductive / reproductive performance / pregnancy / pregnancy): 10 ppm
LEL [10, 34]: 40 ppm
LOAEL [10, 34]: > 40 ppm
NOAEL [10, 34]: ≥ 40 ppm
LOAEL [11, 35]: > 40 ppm
NEL [11, 35]: 1 ppm
NOAEL [11, 35]: ≥ 40 ppm
LEL ([11]; systemic / organ weight / spleen / absolute + systemic / organ weight / spleen / relative to body weight): 10 ppm

Oc1ccccc1O [Catechol]
LEL [12]: 400 mg/kg/day
LOAEL [12]: > 400 mg/kg/day
NEL [12]: < 400 mg/kg/day
NOAEL [12]: ≥ 400 mg/kg/day
LEL [13]: 1200 mg/kg/day
LOAEL [13]: > 1200 mg/kg/day
NEL [13]: < 1200 mg/kg/day
NOAEL [13]: ≥ 1200 mg/kg/day

CCc1cc(S(=O)(=O)O)c2cc(C(C)C)cccc1-2 [Egualen]
LEL [14, 36]: 135 mg/kg/day
LOAEL [14, 36]: > 135 mg/kg/day
NEL [14, 36]: 45 mg/kg/day
NOAEL [14, 36]: ≥ 135 mg/kg/day
LEL [14, 37]: 135 mg/kg/day
LOAEL [14, 37]: > 135 mg/kg/day
NEL [14, 37]: 45 mg/kg/day
NOAEL [14, 37]: ≥ 135 mg/kg/day
LEL [15]: 77 mg/kg/day
LOAEL [15]: > 600 mg/kg/day
NEL [15]: 10 mg/kg/day
NOAEL [15]: ≥ 600 mg/kg/day
LEL [16, 38]: 300 mg/kg/day
LOAEL [16, 38]: > 300 mg/kg/day
NEL [16, 38]: 55 mg/kg/day
NOAEL [16, 38]: ≥ 300 mg/kg/day
LEL [16, 39]: 55 mg/kg/day
LOAEL [16, 39]: > 300 mg/kg/day
NEL [16, 39]: 10 mg/kg/day
NOAEL [16, 39]: ≥ 300 mg/kg/day
LEL [17]: 200 mg/kg/day
LOAEL [17]: > 200 mg/kg/day
NEL [17]: 50 mg/kg/day
NOAEL [17]: ≥ 200 mg/kg/day
